In ChEMBL document CHEMBL1201862, “PubChem BioAssay data set” (2004):
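Assay format: 96-well plates, 48-hour exposure. GI50 marks 50% less growth.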 The source made the active and inactive calls. No stated cut-off is given here; in the data, active = GI50 up to about 1.1 µM and inactive = higher.

Experiments:
Experiment in all cases: growth of human tumour cells (NCI), 48 h
HCC 2998 = test system: HCC 2998
RPMI-8226 = test system: RPMI-8226
A549 = test system: A549
SK-MEL-2 = test system: SK-MEL-2
NCI-H460 = test system: NCI-H460
T47D = test system: T47D
MOLT-4 = test system: MOLT-4
OVCAR-5 = test system: OVCAR-5
HCT-15 = test system: HCT-15
OVCAR-3 = test system: OVCAR-3
SF-539 = test system: SF-539
OVCAR-4 = test system: OVCAR-4
UO-31 = test system: UO-31
SK-MEL-28 = test system: SK-MEL-28
CAKI-1 = test system: CAKI-1
M14 = test system: M14
LOX IMVI = test system: LOX IMVI
RXF 393 = test system: RXF 393
NCI-H23 = test system: NCI-H23
NCI-H226 = test system: NCI-H226
K562 = test system: K562
COLO 205 = test system: COLO 205
HT-29 = test system: HT-29
EKVX = test system: EKVX
SN12C = test system: SN12C
ACHN = test system: ACHN
PC-3 = test system: PC-3
HL-60 = test system: HL-60
SF-268 = test system: SF-268
HOP-62 = test system: HOP-62
UACC-62 = test system: UACC-62
786-0 = test system: 786-0
Hs-578T = test system: Hs-578T
NCI-H522 = test system: NCI-H522
TK-10 = test system: TK-10
IGROV-1 = test system: IGROV-1
MDA-MB-231 = test system: MDA-MB-231
HOP-92 = test system: HOP-92
SNB-19 = test system: SNB-19
UACC-257 = test system: UACC-257
SF-295 = test system: SF-295
SNB-75 = test system: SNB-75
DU-145 = test system: DU-145
SK-MEL-5 = test system: SK-MEL-5
U-251 = test system: U-251
MCF7 = test system: MCF7
NCI/ADR-RES = test system: NCI/ADR-RES
OVCAR-8 = test system: OVCAR-8
MDA-MB-435 = test system: MDA-MB-435
KM12 = test system: KM12
SW-620 = test system: SW-620
BT-549 = test system: BT-549
CCRF-CEM = test system: CCRF-CEM
A498 = test system: A498
HCT-116 = test system: HCT-116
MDA-N = test system: MDA-N
SR = test system: SR

Measured: GI50

COc1ccc(/C=C(\C(=O)OCC(C)C)c2ccc(OC)c(OC)c2)cc1OC
> 100 µM: HCT-15
inactive: HCC 2998 > 100 µM | RPMI-8226 > 100 µM | A549 > 100 µM | SK-MEL-2 > 100 µM | NCI-H460 > 100 µM | T47D > 100 µM | MOLT-4 > 100 µM | OVCAR-5 > 100 µM | OVCAR-3 > 100 µM | SF-539 > 100 µM | OVCAR-4 > 100 µM | UO-31 > 100 µM | SK-MEL-28 > 100 µM | CAKI-1 > 100 µM | M14 32.5 µM | LOX IMVI 74.6 µM | RXF 393 > 100 µM | NCI-H23 > 100 µM | NCI-H226 > 100 µM | K562 > 100 µM | COLO 205 38.4 µM | HT-29 > 100 µM | EKVX > 100 µM | SN12C > 100 µM | ACHN > 100 µM | PC-3 > 100 µM | HL-60 > 100 µM | SF-268 > 100 µM | HOP-62 74 µM | UACC-62 > 100 µM | 786-0 > 100 µM | Hs-578T > 100 µM | NCI-H522 > 100 µM | TK-10 > 100 µM | IGROV-1 > 100 µM | MDA-MB-231 31 µM | HOP-92 > 100 µM | SNB-19 > 100 µM | UACC-257 > 100 µM | SF-295 69.5 µM | SNB-75 47.2 µM | DU-145 > 100 µM | SK-MEL-5 > 100 µM | U-251 56.2 µM | MCF7 > 100 µM | NCI/ADR-RES > 100 µM | OVCAR-8 > 100 µM | MDA-MB-435 > 100 µM | KM12 > 10 µM | SW-620 > 100 µM | BT-549 > 100 µM | CCRF-CEM > 100 µM | A498 > 100 µM | HCT-116 > 100 µM | MDA-N > 100 µM | SR > 100 µM
